Like-named read-outs stand apart in the source and are kept apart here.
Biological target: TRIP8b-HCN1c40 (Homo sapiens (Human), UniProt Q8IYB4)
Test: TRIP8b-HCN1c40 AlphaScreen assay
Format: binding
Protocol: AlphaScreen Assay. 20 nM ofGST-tagged HCNlc40 protein (corresponding to the C terminal 40 amino acids of HCN1) was incubated with 200 nM of His-tagged TRIP8b(241-602) and varying concentrations of the test compound as described in our prior report (Han et al., 2015). After a 3 h incubation, anti-GST AlphaScreen acceptor beads were added for 1.5 h followed by AlphaScreen nickel chelate donor beads for 1.5 h. AlphaScreen signal was quantified using a PerkinElmer (Waltham, MA) EnSpire multimode plate reader.

[1] = activity ranges, read-out: TRIP8b-HCN1c40 Alphascreen IC50 activity
[2] = read-out: TRIP8b-HCN1c40 Alphascreen IC50

TRIP8b-HCN1c40, sequence (Q8IYB4 265-626): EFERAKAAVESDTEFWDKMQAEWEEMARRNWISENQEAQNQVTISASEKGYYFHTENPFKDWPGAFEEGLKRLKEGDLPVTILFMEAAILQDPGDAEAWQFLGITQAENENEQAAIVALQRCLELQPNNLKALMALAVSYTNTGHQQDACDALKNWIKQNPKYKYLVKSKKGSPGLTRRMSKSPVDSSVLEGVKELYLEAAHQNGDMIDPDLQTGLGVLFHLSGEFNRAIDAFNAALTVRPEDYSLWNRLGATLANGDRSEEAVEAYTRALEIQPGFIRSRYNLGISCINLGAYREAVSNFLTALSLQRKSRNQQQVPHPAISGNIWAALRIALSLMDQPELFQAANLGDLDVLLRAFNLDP

## CN1CCN(Cc2cc(-c3ccc(Cl)c(Cl)c3)ccc2OCC(=O)NC2Cc3ccccc3C2)CC1 [NUCC-0201989]
[1]
  IC50: 1000 to 2000 nM
[2]
  IC50: 1300 nM

## CN1CCN(Cc2cc(-c3ccc(Cl)c(Cl)c3)ccc2OCC(=O)N2CCc3ccccc3C2)CC1 [NUCC-0201990]
[1]
  IC50: < 1000 nM
[2]
  IC50: < 740 nM

## CN1CCN(Cc2cc(-c3ccc(Cl)c(Cl)c3)ccc2OCC(=O)N2CCc3cc(Cl)c(Cl)cc32)CC1 [NUCC-0201991]
[1]
  IC50: < 1000 nM
[2]
  IC50: < 740 nM

## CN1CCN(Cc2cc(-c3ccc(Cl)c(Cl)c3)ccc2OCC(=O)NC2Cc3ccc(Cl)cc3C2)CC1 (stereo not drawn) [NUCC-0201992]
[1]
  IC50: < 1000 nM
[2]
  IC50: < 740 nM

## CN1CCN(Cc2cc(-c3ccc(Cl)c(Cl)c3)ccc2OCC(=O)N2Cc3ccc(Cl)cc3C2)CC1 [NUCC-0201993]
[1]
  IC50: 1000 to 2000 nM
[2]
  IC50: 1900 nM

## CN1CCN(Cc2cc(-c3ccc(Cl)c(Cl)c3)ccc2OCC(=O)NCCc2ccc(C#N)cc2)CC1 [NUCC-0201994]
[1]
  IC50: 2000 to 5000 nM
[2]
  IC50: 3400 nM

## CN1CCN(Cc2cc(-c3ccc(Cl)c(Cl)c3)ccc2OCC(=O)NCCc2ccc(C(F)(F)F)cc2)CC1 [NUCC-0201995]
[1]
  IC50: < 1000 nM
[2]
  IC50: < 740 nM

## CN1CCN(Cc2cc(-c3ccc(Cl)c(Cl)c3)ccc2OCC(=O)NCCc2ccccc2)CC1 [NUCC-0201996]
[1]
  IC50: 1000 to 2000 nM
[2]
  IC50: 1100 nM

## CN1CCN(Cc2cc(-c3ccccc3Cl)ccc2OCC(=O)Nc2ccc(Cl)c(Cl)c2)CC1 [NUCC-0201997]
[1]
  IC50: < 1000 nM
[2]
  IC50: < 740 nM

## CN1CCN(Cc2cc(-c3cccc(Cl)c3)ccc2OCC(=O)Nc2ccc(Cl)c(Cl)c2)CC1 [NUCC-0201998]
[1]
  IC50: < 1000 nM
[2]
  IC50: < 740 nM

## CN1CCN(Cc2cc(-c3ccc(Cl)cc3)ccc2OCC(=O)Nc2ccc(Cl)c(Cl)c2)CC1 [NUCC-0201999]
[1]
  IC50: < 1000 nM
[2]
  IC50: < 740 nM

## Cc1cccc(-c2ccc(OCC(=O)Nc3ccc(Cl)c(Cl)c3)c(CN3CCN(C)CC3)c2)c1 [NUCC-0202000]
[1]
  IC50: < 1000 nM
[2]
  IC50: 760 nM

## CN1CCN(Cc2cc(-c3ccc(Cl)cc3Cl)ccc2OCC(=O)Nc2ccc(Cl)c(Cl)c2)CC1 [NUCC-0202001]
[1]
  IC50: < 1000 nM
[2]
  IC50: < 740 nM

## CN1CCN(Cc2cc(-c3ccc(Cl)c(Cl)c3)ccc2OCC(=O)Nc2ccc(Cl)c(Cl)c2)CC1 [NUCC-0202002]
[1]
  IC50: < 1000 nM
[2]
  IC50: < 740 nM

## CN1CCN(Cc2cc(-c3cc(Cl)cc(Cl)c3)ccc2OCC(=O)Nc2ccc(Cl)c(Cl)c2)CC1 [NUCC-0202003]
[1]
  IC50: < 1000 nM
[2]
  IC50: < 740 nM

## CN1CCN(Cc2cc(-c3ccccc3)ccc2OCC(=O)Nc2ccc(Cl)c(Cl)c2)CC1 [NUCC-0202004]
[1]
  IC50: < 1000 nM
[2]
  IC50: 890 nM

## CN1CCN(Cc2cc(-c3cccnc3)ccc2OCC(=O)Nc2ccc(Cl)c(Cl)c2)CC1 [NUCC-0202005]
[1]
  IC50: 5000 to 10000 nM
[2]
  IC50: 5500 nM

## CN1CCN(Cc2cc(-c3ccncc3)ccc2OCC(=O)Nc2ccc(Cl)c(Cl)c2)CC1 [NUCC-0202006]
[1]
  IC50: 5000 to 10000 nM
[2]
  IC50: 5300 nM

## CN1CCN(Cc2cc(-c3cc(C(F)(F)F)cnc3Cl)ccc2OCC(=O)Nc2ccc(Cl)c(Cl)c2)CC1 [NUCC-0202007]
[1]
  IC50: 2000 to 5000 nM
[2]
  IC50: 4600 nM

## CN1CCN(Cc2ccc(-c3ccc(Cl)c(Cl)c3)cc2OCC(=O)NCc2ccc(Cl)cc2)CC1 [NUCC-0202008]
[1]
  IC50: 1000 to 2000 nM
[2]
  IC50: 1200 nM

## CN1CCN(Cc2ccc(-c3ccc(Cl)cc3)cc2OCC(=O)NCc2ccc(Cl)cc2)CC1 [NUCC-0202009]
[1]
  IC50: 1000 to 2000 nM
[2]
  IC50: 1000 nM

## CN1CCN(Cc2ccc(-c3ccc(F)cc3)cc2OCC(=O)NCc2ccc(Cl)cc2)CC1 [NUCC-0202010]
[1]
  IC50: 5000 to 10000 nM
[2]
  IC50: 5700 nM

## Cc1ccc(-c2ccc(CN3CCN(C)CC3)c(OCC(=O)NCc3ccc(Cl)cc3)c2)cc1 [NUCC-0202011]
[1]
  IC50: 1000 to 2000 nM
[2]
  IC50: 1500 nM

## CN1CCN(Cc2ccc(-c3ccc(C(F)(F)F)cc3)cc2OCC(=O)NCc2ccc(Cl)cc2)CC1 [NUCC-0202012]
[1]
  IC50: 2000 to 5000 nM
[2]
  IC50: 2100 nM

## CN1CCN(Cc2ccc(-c3ccc(F)c(C(F)(F)F)c3)cc2OCC(=O)NCc2ccc(Cl)cc2)CC1 [NUCC-0202013]
[1]
  IC50: 1000 to 2000 nM
[2]
  IC50: 1400 nM

## CN1CCN(Cc2cc(-c3ccc(Cl)c(Cl)c3)ccc2OCC(=O)Nc2ccc3ncsc3c2)CC1 [NUCC-0202014]
[1]
  IC50: < 1000 nM
[2]
  IC50: 810 nM

## C=Cc1ccccc1NC(=O)COc1ccc(-c2ccc(Cl)c(Cl)c2)cc1CN1CCN(C)CC1 [NUCC-0202015]
[1]
  IC50: 1000 to 2000 nM
[2]
  IC50: 1100 nM

## CN1CCN(Cc2cc(-c3ccc(Cl)c(Cl)c3)ccc2OCC(=O)Nc2ccc(Cl)cc2)CC1 [NUCC-0202016]
[1]
  IC50: < 1000 nM
[2]
  IC50: 780 nM

## CN1CCN(Cc2cc(-c3ccc(Cl)c(Cl)c3)ccc2COC(=O)Nc2ccc3c(c2)OCO3)CC1 [NUCC-0202017]
[1]
  IC50: < 1000 nM
[2]
  IC50: < 740 nM

## Cc1ccc(NC(=O)COc2ccc(-c3ccc(Cl)c(Cl)c3)cc2CN2CCN(C)CC2)cc1 [NUCC-0202018]
[1]
  IC50: 1000 to 2000 nM
[2]
  IC50: 1000 nM

## COc1ccc(NC(=O)COc2ccc(-c3ccc(Cl)c(Cl)c3)cc2CN2CCN(C)CC2)cc1 [NUCC-0202019]
[1]
  IC50: 1000 to 2000 nM
[2]
  IC50: 1300 nM

## CN1CCN(Cc2cc(-c3ccc(N)cc3)ccc2OCC(=O)Nc2ccc(Cl)c(Cl)c2)CC1 [NUCC-0202020]
[1]
  IC50: 1000 to 2000 nM
[2]
  IC50: 1500 nM

## CN1CCN(Cc2cc(-c3ccc4c(c3)OCCO4)ccc2OCC(=O)Nc2ccc(Cl)c(Cl)c2)CC1 [NUCC-0202021]
[1]
  IC50: 1000 to 2000 nM
[2]
  IC50: 1400 nM

## CN1CCN(Cc2cc(-c3cccc(S(C)(=O)=O)c3)ccc2OCC(=O)Nc2ccc(Cl)c(Cl)c2)CC1 [NUCC-0202022]
[1]
  IC50: 2000 to 5000 nM
[2]
  IC50: 2700 nM

## CN1CCN(Cc2cc(-c3ccc(Cl)c(C(F)(F)F)c3)ccc2OCC(=O)Nc2ccc(Cl)c(Cl)c2)CC1 [NUCC-0202023]
[1]
  IC50: 1000 to 2000 nM
[2]
  IC50: 1300 nM

## CN1CCN(Cc2cc(-c3ccc(CO)cc3)ccc2OCC(=O)Nc2ccc(Cl)c(Cl)c2)CC1 [NUCC-0202024]
[1]
  IC50: 2000 to 5000 nM
[2]
  IC50: 3200 nM

## CC(Oc1ccc(-c2ccc(Cl)cc2)cc1CN1CCN(C)CC1)C(=O)NCc1ccc(Cl)cc1 (stereo not drawn) [NUCC-0202025]
[1]
  IC50: 1000 to 2000 nM
[2]
  IC50: 1500 nM

## CC(Oc1ccc(-c2ccc(Cl)cc2Cl)cc1CN1CCN(C)CC1)C(=O)NCc1ccc(Cl)cc1 (stereo not drawn) [NUCC-0202026]
[1]
  IC50: < 1000 nM
[2]
  IC50: 910 nM

## CC(Oc1ccc(-c2ccc(Cl)c(Cl)c2)cc1CN1CCN(C)CC1)C(=O)NCc1ccc(Cl)cc1 (stereo not drawn) [NUCC-0202027]
[1]
  IC50: < 1000 nM
[2]
  IC50: 940 nM

## CC(Oc1ccc(-c2cc(Cl)cc(Cl)c2)cc1CN1CCN(C)CC1)C(=O)NCc1ccc(Cl)cc1 (stereo not drawn) [NUCC-0202028]
[1]
  IC50: < 1000 nM
[2]
  IC50: 860 nM

## CC(Oc1ccc(-c2ccc(C(F)(F)F)cc2)cc1CN1CCN(C)CC1)C(=O)NCc1ccc(Cl)cc1 (stereo not drawn) [NUCC-0202029]
[1]
  IC50: 2000 to 5000 nM
[2]
  IC50: 4500 nM

## CC(Oc1ccc(-c2ccc(O)cc2)cc1CN1CCN(C)CC1)C(=O)NCc1ccc(Cl)cc1 (stereo not drawn) [NUCC-0202030]
[1]
  IC50: 10000 to 20000 nM
[2]
  IC50: 14000 nM

## Cc1ccc(-c2ccc(OC(C)C(=O)NCc3ccc(Cl)cc3)c(CN3CCN(C)CC3)c2)cc1 (stereo not drawn) [NUCC-0202031]
[1]
  IC50: 2000 to 5000 nM
[2]
  IC50: 3400 nM

## CC(Oc1ccc(-c2ccc(F)cc2)cc1CN1CCN(C)CC1)C(=O)NCc1ccc(Cl)cc1 (stereo not drawn) [NUCC-0202032]
[1]
  IC50: 2000 to 5000 nM
[2]
  IC50: 3200 nM

## CC(Oc1ccc(-c2ccc(F)c(C(F)(F)F)c2)cc1CN1CCN(C)CC1)C(=O)NCc1ccc(Cl)cc1 (stereo not drawn) [NUCC-0202033]
[1]
  IC50: < 1000 nM
[2]
  IC50: 990 nM
